In patent publication US11685734B2, “ATM kinase inhibitors and compositions and methods of use thereof” (CHDI Foundation, Inc., priority 2019, dated 2023) one finds IC50 data, which are given here for 15 molecules.

Test [1] concerns the target Recombinant, full length human FLAG-tagged ATM (Homo sapiens (Human), UniProt Q13315). Nature of the test: ATM ELISA for p53 S15 phosphorylation. To be noted: 0.75 nM ATM, 25 nM p53, 10 μM ATP, 30 min at 20° C.; read-out: ATM BIO IC50. The test is classed as biochemical. As for the experimental part: ATM: Recombinant, full length human FLAG-tagged ATM activity (Eurofins 14-933) was measured in an ELISA for p53 S15 phosphorylation, in a 384 well V-bottom polypropylene plate (Greiner Bio One 781280). Reactions contained 0.75 nM ATM, 25 nM full length myc tagged p53 (Eurofins 23-034), 10 μM UltraPure ATP (Promega V915B) and serial dilutions of inhibitors (0.1% DMSO final) in 25 mM HEPES, pH 7.5. 5 mM MgCl2, 2.5 mM MnCl2, 0.006% Brij-35, 0.5% glycerol, 0.1 mg/ml BSA, 0.5 mM DTT and were allowed to proceed for 30 min at 20° C. 70 mM EDTA final terminated the kinase reactions. An aliquot of the terminated reaction (25 μl) was transferred to a 384-well, high binding microplate (Greiner Bio One 781061), precoated with anti-myc capture antibody overnight (Millipore 05-724) diluted in 1:1000 in PBS, then blocked with Odyssey blocking buffer (LI-COR Biosciences 92740000) for 60 min at 20° C. The terminated reaction was allowed to capture for 2 h at 20° C. Phosphorylation was measured using an antibody specific to p53 S15 phosphorylation (1:5000 Abcam ab38497), anti-rabbit HRP (1:1000 Cell Signalling Technology, 7074) and TMB (ab171522). Antibodies were diluted in Odyssey blocking buffer and incubated for 60 min at 20° C. Three washes with PBS containing 0.05% (v/v) Tween 20 (PBS-T) were performed between each incubation. The TMB reaction was stopped with an equal volume of 0.2 M sulfuric acid and absorbance read at 450 nm on the Perkin Elmer Envision within 30 min of terminating the reaction. […] IC50 values represent the mean from at least two independent experiments.
Background: An ELISA detects its analyte on a solid surface through an enzyme-linked reagent.

A further test has as its target cellular ATM activity (Homo sapiens (Human), UniProt Q13315). Nature of the test: Inhibition of cellular ATM activity: etoposide-stimulated KAP1 phosphorylation in U20S cells. The test is classed as cell-based. To be noted: 100 μM etoposide, 60 min, read-out: ATM CELL IC50. As for the experimental part: Inhibition of cellular ATM activity was determined by changes in etoposide-stimulated KAP1 phosphorylation, based on the work of Guo et al. 2014.
Cryopreserved U20S cells were plated overnight at 6 k cells/well in black walled, clear bottomed 384 well plates (Greiner Bio One 781090). After overnight incubation (37 C, 5% CO2), cells were incubated with titrations of test compounds (0.3% DMSO final) in the presence of 100 μM etoposide (Sigma E1383) to stimulate ATM via induction of double stranded DNA breaks. After 60 min, cells were fixed using 100% cold methanol and incubated at −20° C. for 10 min. Fixed cells were washed with PBS containing 0.05% (v/v) Tween 20 (PBS-T) prior to a 60 minute blocking step in Odyssey blocking buffer (LI-COR Biosciences 92740000). Primary antibodies (1:1000 phosphorylated KAP1: Cell Signalling Technology 4127, 1:5000 total KAP1: Cell Signaling Technology 5868) were diluted in Odyssey blocking buffer and incubated overnight at 4° C., before addition of IRDye(R) conjugated secondary antibodies (LI-COR Biociences 926-32211, LI-COR Biosciences 926-68070) diluted 1:2000 in Odyssey blocking buffer for 60 min at room temperature and detection by LI-COR Odyssey (ImageStudio version 2.1.10, focus offset 4 mm, resolution 169 μm, lowest quality, intensities of 1 and 3 for 700 and 800 channels respectively). Immunoreactivity was quantified and the ratio of phosphorylated KAP1 calculated by dividing by the total KAP1 immunoreactivity. The percentage of inhibition was calculated for each concentration of compound using 100% (100 μM etoposide+30 μM KU-60019) and 0% effect controls (100 μM etoposide+DMSO). IC50 values represent the mean from at least two independent experiments.

cellular ATM activity, sequence (Q13315 whole entry): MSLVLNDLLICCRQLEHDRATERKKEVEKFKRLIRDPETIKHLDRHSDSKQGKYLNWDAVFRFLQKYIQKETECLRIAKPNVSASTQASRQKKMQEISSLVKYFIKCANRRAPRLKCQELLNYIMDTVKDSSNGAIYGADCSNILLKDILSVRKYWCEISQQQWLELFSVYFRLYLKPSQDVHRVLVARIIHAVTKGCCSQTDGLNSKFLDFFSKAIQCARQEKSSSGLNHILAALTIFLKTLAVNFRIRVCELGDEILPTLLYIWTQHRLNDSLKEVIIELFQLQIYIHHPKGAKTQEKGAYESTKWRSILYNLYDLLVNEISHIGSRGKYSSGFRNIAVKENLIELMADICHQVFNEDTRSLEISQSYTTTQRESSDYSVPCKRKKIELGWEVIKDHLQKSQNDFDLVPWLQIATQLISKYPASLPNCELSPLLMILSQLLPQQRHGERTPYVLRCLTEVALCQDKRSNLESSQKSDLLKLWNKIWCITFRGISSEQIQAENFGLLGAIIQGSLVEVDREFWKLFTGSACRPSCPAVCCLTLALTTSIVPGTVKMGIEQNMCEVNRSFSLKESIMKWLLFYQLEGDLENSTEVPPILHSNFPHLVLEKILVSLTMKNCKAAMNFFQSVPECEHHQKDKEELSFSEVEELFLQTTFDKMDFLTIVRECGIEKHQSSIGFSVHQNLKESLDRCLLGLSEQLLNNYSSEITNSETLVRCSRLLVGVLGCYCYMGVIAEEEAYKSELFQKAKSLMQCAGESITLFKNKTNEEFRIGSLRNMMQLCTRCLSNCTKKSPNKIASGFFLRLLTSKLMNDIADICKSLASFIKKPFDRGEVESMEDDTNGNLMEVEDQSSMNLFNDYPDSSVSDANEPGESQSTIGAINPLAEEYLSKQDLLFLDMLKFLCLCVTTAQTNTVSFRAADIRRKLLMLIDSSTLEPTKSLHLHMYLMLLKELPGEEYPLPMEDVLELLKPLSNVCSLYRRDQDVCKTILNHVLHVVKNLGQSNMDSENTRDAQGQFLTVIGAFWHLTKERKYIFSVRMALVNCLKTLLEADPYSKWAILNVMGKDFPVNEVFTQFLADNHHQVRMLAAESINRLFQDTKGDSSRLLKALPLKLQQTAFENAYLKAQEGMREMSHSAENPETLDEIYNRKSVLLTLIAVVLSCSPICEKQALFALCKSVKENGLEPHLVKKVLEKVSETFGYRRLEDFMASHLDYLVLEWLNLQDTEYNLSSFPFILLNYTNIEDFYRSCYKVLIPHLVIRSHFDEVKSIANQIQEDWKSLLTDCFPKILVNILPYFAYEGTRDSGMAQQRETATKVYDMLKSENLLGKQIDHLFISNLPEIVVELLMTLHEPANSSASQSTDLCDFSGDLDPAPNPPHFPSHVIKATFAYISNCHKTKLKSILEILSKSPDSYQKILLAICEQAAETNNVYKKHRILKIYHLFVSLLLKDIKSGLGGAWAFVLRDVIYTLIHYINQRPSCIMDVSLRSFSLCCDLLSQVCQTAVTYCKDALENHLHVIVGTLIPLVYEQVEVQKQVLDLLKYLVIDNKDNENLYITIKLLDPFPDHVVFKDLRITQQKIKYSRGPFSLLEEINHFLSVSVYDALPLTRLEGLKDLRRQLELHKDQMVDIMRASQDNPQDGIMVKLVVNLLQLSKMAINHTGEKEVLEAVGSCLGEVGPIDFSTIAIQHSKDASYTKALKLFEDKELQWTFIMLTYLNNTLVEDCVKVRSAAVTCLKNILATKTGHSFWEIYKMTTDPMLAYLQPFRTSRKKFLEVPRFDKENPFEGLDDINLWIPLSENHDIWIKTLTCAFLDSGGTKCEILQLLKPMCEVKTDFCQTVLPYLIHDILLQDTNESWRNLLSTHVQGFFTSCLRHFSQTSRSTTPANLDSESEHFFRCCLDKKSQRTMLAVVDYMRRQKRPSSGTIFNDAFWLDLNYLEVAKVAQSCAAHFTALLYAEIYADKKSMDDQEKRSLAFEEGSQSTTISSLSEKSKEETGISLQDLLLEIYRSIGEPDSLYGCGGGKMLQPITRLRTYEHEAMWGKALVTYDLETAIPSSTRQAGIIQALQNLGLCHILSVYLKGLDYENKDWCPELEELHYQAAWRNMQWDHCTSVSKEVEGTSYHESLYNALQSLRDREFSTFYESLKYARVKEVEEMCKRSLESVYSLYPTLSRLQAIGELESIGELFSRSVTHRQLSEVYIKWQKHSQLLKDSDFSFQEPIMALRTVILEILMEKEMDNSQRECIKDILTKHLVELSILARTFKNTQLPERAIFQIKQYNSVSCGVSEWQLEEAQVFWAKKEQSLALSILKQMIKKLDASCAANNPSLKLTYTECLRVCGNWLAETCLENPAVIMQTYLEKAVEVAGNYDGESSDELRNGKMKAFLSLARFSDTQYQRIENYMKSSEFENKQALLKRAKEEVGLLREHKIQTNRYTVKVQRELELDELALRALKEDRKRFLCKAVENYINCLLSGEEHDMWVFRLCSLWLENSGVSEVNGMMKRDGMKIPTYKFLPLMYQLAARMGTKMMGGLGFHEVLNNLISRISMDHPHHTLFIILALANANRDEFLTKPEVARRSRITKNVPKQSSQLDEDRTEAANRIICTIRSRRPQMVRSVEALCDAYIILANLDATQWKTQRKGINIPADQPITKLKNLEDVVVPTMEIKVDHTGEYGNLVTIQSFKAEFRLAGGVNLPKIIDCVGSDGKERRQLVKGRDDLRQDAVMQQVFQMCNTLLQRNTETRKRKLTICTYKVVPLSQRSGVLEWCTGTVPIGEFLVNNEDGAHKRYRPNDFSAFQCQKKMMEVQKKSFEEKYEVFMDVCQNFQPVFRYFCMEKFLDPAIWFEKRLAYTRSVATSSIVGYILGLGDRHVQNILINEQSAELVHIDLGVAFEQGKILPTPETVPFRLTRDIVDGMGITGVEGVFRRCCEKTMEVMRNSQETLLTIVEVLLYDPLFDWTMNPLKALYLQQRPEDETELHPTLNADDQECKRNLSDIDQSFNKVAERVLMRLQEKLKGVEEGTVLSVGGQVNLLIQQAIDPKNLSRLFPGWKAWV
Recombinant, full length human FLAG-tagged ATM, sequence (Q13315 whole entry): as above

In general, IC50 refers to the concentration that inhibits the measured activity by half. Regarding `C[C@@H]1CN(c2cc(N3[C@@H]4CC[C@@H](C4)[C@@H]3Cc3ccccc3)[nH]c(=O)c2)CCO1` [Example 117, 6-((1R,3S,4S)-3-benzyl-2-azabicyclo[2.2.1]heptan-2-yl)-4-((R)-2-methylmorpholino) pyridin-2(1H)-one], the figures for the IC50 (in test [1]; at cellular ATM activity) were 72.8 nM and 684 nM, respectively.

For the molecule `O=c1cc(N2CCOCC2)cc(N2C[C@H]3CCC[C@H]3[C@@H]2Cc2ccccc2)[nH]1` [Example 123], the figures for the IC50 (in test [1]; on cellular ATM activity) were 21.2 nM and 861 nM, respectively.

As to `O=c1cc(N2CCOCC2)cc(N2C[C@@H]3CCC[C@@H]3[C@@H]2Cc2ccccc2)[nH]1` [Example 124], the IC50 came out at 3.3 nM in test [1] and 248 nM on cellular ATM activity.

For the molecule `COc1ccccc1C[C@H]1[C@@H]2C[C@@H]2CN1c1cc(N2CCOCC2)cc(=O)[nH]1` [Example 126], the concentration for half-maximal inhibition (IC50) in test [1] came out at 6.9 nM; at cellular ATM activity, 388 nM.

For `COc1ccccc1C[C@H]1[C@H]2C[C@H]2CN1c1cc(N2CCOCC2)cc(=O)[nH]1` [Example 128], the IC50 was 14.7 nM in test [1] and 711 nM on cellular ATM activity.

Turning to `O=c1cc(N2CCOCC2)cc(N2C[C@@H]3CC[C@@H](C3)[C@@H]2Cc2ccccc2)[nH]1` [Example 134], the IC50 in test [1] was determined as 13.9 nM; on cellular ATM activity, 581 nM.

In the case of `O=c1cc(N2CCOCC2)cc(N2C[C@H]3CC[C@H](C3)[C@@H]2Cc2ccccc2)[nH]1` [Example 135], the concentration for half-maximal inhibition (IC50) in test [1] was determined as 8.7 nM; on cellular ATM activity it was 178 nM.

Turning to `COC[C@@H](C)Oc1ccc(C[C@H]2CCCN2c2cc(N3CCOCC3)cc(=O)[nH]2)cc1` [Example 145, 6-((R)-2-(4-(((R)-1-methoxypropan-2-yl)oxy)benzyl)pyrrolidin-1-yl)-4-morpholinopyridin-2(1H)-one], the values for the IC50 (in test [1]; at cellular ATM activity) were 65.6 nM and 2030 nM, respectively.

Consider `O=c1cc(N2CCOCC2)cc(N2CCC[C@@H]2Cc2cccc(OC3CCOCC3)c2)[nH]1` [Example 146, (R)-4-morpholino-6-(2-(3-((tetrahydro-2H-pyran-4-yl)oxy)benzyl)pyrrolidin-1-yl)pyridin-2(1H)-one], for which the values for the IC50 (in test [1]; on cellular ATM activity) were 74.2 nM and 1860 nM, respectively.

In the case of `COC[C@@H](C)Oc1cccc(C[C@H]2CCCN2c2cc(N3CCOCC3)cc(=O)[nH]2)c1` [Example 148, 6-((R)-2-(3-(((R)-1-methoxypropan-2-yl)oxy)benzyl)pyrrolidin-1-yl)-4-morpholinopyridin-2(1H)-one], the IC50 was found to be 41.8 nM in test [1] and 1170 nM on cellular ATM activity.

Take `COC[C@@H](C)Oc1ccc(C[C@H]2CCCCCN2c2cc(N3CCOCC3)cc(=O)[nH]2)cc1` [Example 151, 6-((R)-2-(4-(((R)-1-methoxypropan-2-yl)oxy)benzyl)azepan-1-yl)-4-morpholinopyridin-2(1H)-one]: the figures for the IC50 (in test [1]; at cellular ATM activity) were 20.9 nM and 1020 nM, respectively.

For `O=c1cc(C2=CCOCC2)cc(N2CCCCC[C@@H]2Cc2ccccc2)[nH]1` [Example 167, (R)-6-(2-benzylazepan-1-yl)-4-(3,6-dihydro-2H-pyran-4-yl)pyridin-2(1H)-one], the IC50 in test [1] was 38.7 nM; on cellular ATM activity, 1540 nM.

For the molecule `Cn1c(N2CCC[C@@H]2Cc2ccccc2)cc(N2CCOCC2)cc1=O` [Example 173, (R)-6-(2-benzylpyrrolidin-1-yl)-1-methyl-4-morpholinopyridin-2(1H)-one], the concentration for half-maximal inhibition (IC50) in test [1] was 37.8 nM; at cellular ATM activity, 1900 nM.

For `Cn1c(N2CCC[C@@H]2Cc2ccccc2)nc(N2CCOCC2)cc1=O` [Example 176, (R)-2-(2-benzylpyrrolidin-1-yl)-3-methyl-6-morpholinopyrimidin-4(3H)-one], the IC50 in test [1] came to 5.1 nM; at cellular ATM activity it was 462 nM.

Regarding `O=c1cc(N2CCOCC2)nc(N2CCC[C@@H]2Cc2ccccc2)[nH]1` [Example 178, (R)-2-(2-benzylpyrrolidin-1-yl)-6-morpholinopyrimidin-4-ol], the IC50 turned out to be 8 nM in test [1] and 451 nM at cellular ATM activity.
